Where two headings read alike, the source gives them in different places.

The results in this text go back to paper PMC6833214, “Isolation of bioactive compounds from Bergenia ciliata (haw.) Sternb rhizome and their antioxidant and anticholinesterase activities” (BMC Complementary and Alternative Medicine, 2019).

The nature of test [1]: DPPH free radical scavenging assay. The procedure: The free radical scavenging abilities of the extracts were determined using 2,2- Diphenyl-1-picrylhydrazyl (DPPH) assay modified by Brand-Williams et al. with some modification. In oxidized form of DPPH have deep violet color. On getting electrons from antioxidants the deep violet color changes to yellow color. DPPH solution was prepared by dissolving 20 mg in 100 ml methanol (stock solution). From this solution 3 ml were taken and its absorbance was adjusted to 0.75 at 515 nm (control solution). For the formation of free radical, the stock DPPH solution was covered with aluminum foil and kept in dark place for 24 h. For the preparation of stock solutions, 5 mg of each extracts were dissolved in 5 ml of methanol (5000 μg/5 ml). Different dilution (1000, 500, 250, 125 and 62.5 μg/ml) were prepared from stock solutions through serial dilution. About 2 ml from each dilution were mixed with 2 ml of DPPH solution and incubated for 15 min in darkness. The percentage inhibition of DPPH free radical by extracts was calculated using the following formula: 1 %inhibition=A−B/AX100
Where A is the absorbance of DPPH in oxidized state and B is the absorbance of mixture after 15 min of reaction. Ascorbic acid was used as standard antioxidant.
On the technique in general: The DPPH test is a chemical assay of radical scavenging.

Test [2] is described as follows: ABTS free radical scavenging assay.
Experimental: These two solutions were mixed thoroughly and kept in dark overnight for the formation of free radical. About 3 ml were taken from this stock solution and its absorbance was adjusted to 0.76 at 745 nm (control solution). About 300 μl of test samples were mixed with 3 ml of ABTS solution and incubated for 15 min at 25 °C. The absorbance of the mixture was measured using a double beam spectrophotometer at 745 nm. The same procedure was followed for the preparation of different dilution of ascorbic acid (positive control). The data was recorded in triplicate and percent ABTS free radicals scavenging activities were calculated using Eq. 1.
Test [3] deals with T1, acetyl cholinesterase from Electric eel (type-VI-S) (Electrophorus electricus, UniProt O42275).
T1 construct: purchased Sigma-Aldrich USA type-VI-S
Kind of test: biochemical. Particulars: isolated compounds, Table 6; for inhibition at 125 µg/mL: 125 μg/mL; for inhibition at 125 µg/mL / inhibition at 250 µg/mL / inhibition at 500 µg/mL / inhibition at 1000 µg/mL: read-out: AChE percent inhibition (mean ± S.E.M); for inhibition at 250 µg/mL: 250 μg/mL; for inhibition at 500 µg/mL: 500 μg/mL; for inhibition at 1000 µg/mL: 1000 μg/mL; for IC50: read-out: AChE IC50 (converted).

Test [4] deals with T2, butyryl cholinesterase from equine (Equus caballus, UniProt P81908).
T2 construct: purchased Sigma-Aldrich USA
As to the kind of experiment: Butyrylcholinesterase inhibition (Ellman's assay). It is filed as biochemical. Particulars: for inhibition at 125 µg/mL: 125 μg/mL; for inhibition at 1000 µg/mL: 1000 μg/mL. (In general: Ellman's reagent forms a yellow product with free thiols.)
Experimental: Acetyl cholinesterase (AChE) and butyryl cholinesterase (BChE) were used to evaluate the enzyme inhibitory potential of Bergenia ciliata rhizome extracts and isolated compounds using Ellman’s assay [18]. The mentioned enzymes when act on their respective substrates acetylthiocholine iodide and butyrylthiocholine iodide hydrolyze them which then on complexation with 5-thio-2-nitrobenzoate anion formed from DTNB give yellow color. The color change is recorded after 15 min by spectrophotometer. Phosphate buffer (pH = 8) was prepared by mixing 1.36 g/100 mL, potassium dihydrogen phosphate and 1.74 g/100 mL di-potassium hydrogen phosphate (6 and 94% respectively). The AChE solution was prepared by dissolving 0.5 mg of enzyme in 0.5 ml of phosphate buffer to get 1000 unit/ml and BChE solution was also prepared by dissolving 1 mg in 1 ml of phosphate buffer to get 10 unit/ml. These two solutions were further diluted by phosphate buffer till a final concentration of 0.03 unit/ml and 0.1 unit/ml respectively. DTNB solution (0.0002 M) and ATChI and BTChI (0.0005 M) were prepared and kept in reagent bottles in refrigerator before use.
To each test tube, 100 μl of enzyme and DTNB solutions were added and incubated for 15 min at 25 °C. After this 100 μl substrates (AChEI, BChEI) were added to each test tube and allowed to stand for 15 min. The absorbance of mixtures were recorded at 412 nm. A negative control was prepared by mixing all the above mention components except plant extracts. […] For each sample absorption was recorded for 4 minutes. Percent activities of enzyme and percent inhibition were calculated using following relations. 2 V=∆Abs/∆T 3 %enzyme activity=V/Vmaxx100
Where V is the rate of reaction in the presence of inhibitor and Vmax is the rate of reaction without inhibitor.

Setting [5] is: 62.5 μg/mL, isolated compounds, Table 5.
[6] abbreviates: 125 μg/mL, isolated compounds, Table 5.
[7] abbreviates: 250 μg/mL, isolated compounds, Table 5.
Setting [8] is: 500 μg/mL, isolated compounds, Table 5.
Setting [9] is: 1000 μg/mL, isolated compounds, Table 5.
Setting [10] is: isolated compounds, Table 6, read-out: BChE percent inhibition (mean ± S.E.M).
Setting [11] is: 250 μg/mL, isolated compounds, Table 6, read-out: BChE percent inhibition (mean ± S.E.M).
[12] abbreviates: 500 μg/mL, isolated compounds, Table 6, read-out: BChE percent inhibition (mean ± S.E.M).
Where [13] appears, read: isolated compounds, Table 6, read-out: BChE IC50 (converted).

T2 sequence (P81908 whole entry): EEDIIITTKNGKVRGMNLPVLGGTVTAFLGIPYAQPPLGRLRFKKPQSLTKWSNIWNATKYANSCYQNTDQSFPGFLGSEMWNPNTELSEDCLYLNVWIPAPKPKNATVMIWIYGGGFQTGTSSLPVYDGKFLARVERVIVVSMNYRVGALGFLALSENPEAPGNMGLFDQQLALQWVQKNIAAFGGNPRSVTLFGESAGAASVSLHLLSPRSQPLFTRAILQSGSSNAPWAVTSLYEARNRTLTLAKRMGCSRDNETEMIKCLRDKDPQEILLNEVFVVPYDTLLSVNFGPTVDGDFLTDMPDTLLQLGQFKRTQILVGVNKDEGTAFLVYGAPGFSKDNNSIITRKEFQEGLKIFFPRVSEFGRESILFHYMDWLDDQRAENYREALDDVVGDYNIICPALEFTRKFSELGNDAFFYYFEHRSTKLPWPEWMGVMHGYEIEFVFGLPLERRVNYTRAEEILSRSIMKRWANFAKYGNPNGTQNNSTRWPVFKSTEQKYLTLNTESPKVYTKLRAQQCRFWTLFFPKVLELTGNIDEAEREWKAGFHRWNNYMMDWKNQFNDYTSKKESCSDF
T1 sequence (O42275 24-633): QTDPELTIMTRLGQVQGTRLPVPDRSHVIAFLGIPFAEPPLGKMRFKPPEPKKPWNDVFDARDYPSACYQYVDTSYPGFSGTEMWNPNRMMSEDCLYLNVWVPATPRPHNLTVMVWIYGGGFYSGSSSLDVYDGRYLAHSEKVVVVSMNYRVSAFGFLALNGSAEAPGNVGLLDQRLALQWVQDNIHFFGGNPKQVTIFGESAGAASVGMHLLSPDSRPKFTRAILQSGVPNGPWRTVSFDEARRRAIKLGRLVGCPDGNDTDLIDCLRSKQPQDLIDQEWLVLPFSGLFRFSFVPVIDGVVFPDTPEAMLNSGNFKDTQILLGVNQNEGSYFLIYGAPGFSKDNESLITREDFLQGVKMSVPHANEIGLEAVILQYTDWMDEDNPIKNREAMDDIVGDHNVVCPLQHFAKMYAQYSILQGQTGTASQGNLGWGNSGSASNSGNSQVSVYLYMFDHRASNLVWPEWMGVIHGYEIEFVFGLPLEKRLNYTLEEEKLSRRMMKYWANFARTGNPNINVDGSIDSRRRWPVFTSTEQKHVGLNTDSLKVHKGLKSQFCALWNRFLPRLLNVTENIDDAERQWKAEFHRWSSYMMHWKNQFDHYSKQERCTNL

As to `O=C1O[C@H]([C@@H](O)CO)C(O)=C1O` [Ascorbic acid, reference compound], the “DPPH percent inhibition (mean ± S.E.M)” value in test [1] (62.5 μg/mL, extracts, Table 2) is 52.88 ± 0.32%; in test [1] (setting [5]) it was 53.78 ± 0.76%; in test [1] (125 μg/mL, extracts, Table 2) it was 62.90 ± 0.48%; in test [1] (setting [6]), 62.90 ± 0.85%; in test [1] (250 μg/mL, extracts, Table 2) it was 71.93 ± 0.45%; in test [1] (setting [7]), 71.34 ± 2.16%. Besides, the “DPPH percent inhibition (mean ± S.E.M)” value in test [1] (500 μg/mL, extracts, Table 2) was 80.29 ± 0.79%; in test [1] (setting [8]), 80.45 ± 0.96%; in test [1] (1000 μg/mL, extracts, Table 2), 92.94 ± 0.86%; in test [1] (setting [9]) it was 92.67 ± 0.73%. Also, the “DPPH IC50” value in test [1] (extracts, Table 2) turned out to be 50 µg/mL; in test [1] (isolated compounds, Table 5), 50 µg/mL. The “ABTS percent inhibition (mean ± S.E.M)” value in test [2] (62.5 μg/mL, extracts, Table 2) stood at 49.78 ± 0.76%; in test [2] (setting [5]), 50.88 ± 0.32%; in test [2] (125 μg/mL, extracts, Table 2), 58.90 ± 0.85%; in test [2] (setting [6]), 58.90 ± 0.48%; in test [2] (250 μg/mL, extracts, Table 2), 68.34 ± 2.16%; in test [2] (setting [7]), 68.93 ± 0.45%. Further, the “ABTS percent inhibition (mean ± S.E.M)” value in test [2] (500 μg/mL, extracts, Table 2) is 80.45 ± 0.96%; in test [2] (setting [8]), 80.29 ± 0.79%; in test [2] (1000 μg/mL, extracts, Table 2), 89.67 ± 0.73%; in test [2] (setting [9]) it was 89.94 ± 0.86%. Besides, the “ABTS IC50” value was 64 µg/mL in test [2] (extracts, Table 2) and 62 µg/mL in test [2] (isolated compounds, Table 5).
By inhibition is commonly meant how much of the control response was suppressed. As usually defined, the IC50 is the concentration that inhibits the measured activity by half. With `C[C@@H]1O[C@@H](OC[C@H]2O[C@@H](Oc3c(-c4ccc(O)c(O)c4)oc4cc(O)cc(O)c4c3=O)[C@H](O)[C@@H](O)[C@@H]2O)[C@H](O)[C@H](O)[C@H]1O` [Rutin, 3,3,4,5,7-pentadroxyflavones-3-rutinoside], the “DPPH percent inhibition (mean ± S.E.M)” value stood at 35.38 ± 2.28 % in test [1] (setting [5]); 46.63 ± 1.17 % in test [1] (setting [6]); 57.47 ± 0.93 % in test [1] (setting [7]); 68.43 ± 1.40 % in test [1] (setting [8]); 80.90 ± 1.27 % in test [1] (setting [9]). Moreover, the “DPPH IC50” value in test [1] (isolated compounds, Table 5) was 150 µg/mL. Besides, the “ABTS percent inhibition (mean ± S.E.M)” value in test [2] (setting [5]) was 29.75 ± 2.18 %; in test [2] (setting [6]), 44.30 ± 0.79 %; in test [2] (setting [7]), 57.56 ± 1.42 %; in test [2] (setting [8]) it was 69.05 ± 0.64 %; in test [2] (setting [9]) it was 78.33 ± 0.63 %. Also, the “ABTS IC50” value in test [2] (isolated compounds, Table 5) is 183 µg/mL. The inhibition at 125 µg/mL was found to be 48.1 ± 0.64% in test [3] and 45 ± 3.79% in test [4] (setting [10]). In addition, the inhibition at 250 µg/mL is 60.2 ± 2.35% in test [3] and 56.7 ± 0.7% in test [4] (setting [11]). In addition, the figures for the inhibition at 500 µg/mL in test [3] and in test [4] (setting [12]) were 66.72 ± 0.62% and 62.5 ± 1.72%, respectively. The values for the inhibition at 1000 µg/mL in test [3] and in test [4] (setting [10]) were 75.1 ± 1.41% and 72 ± 0.86%, respectively. In addition, the IC50 in test [3] is 193 µM; in test [4] (BChE IC50, isolated compounds, Table 6), 282 µM.
For `Oc1cccc(O)c1O` [Pyrogallol, Benzene-1,2,3-triol], the “DPPH percent inhibition (mean ± S.E.M)” value in test [1] (setting [5]) is reported as 48.72 ± 0.89 ^ns %; in test [1] (setting [6]), 59.93 ± 2.18 ^ns %; in test [1] (setting [7]), 70.30 ± 1.05 ^ns %; in test [1] (setting [8]), 81.64 ± 1.33 ^ns %; in test [1] (setting [9]) it was 89.35 ± 0.92 ^ns %. In addition, the “DPPH IC50” value in test [1] (isolated compounds, Table 5) was 68 µg/mL. For the same compound, the “ABTS percent inhibition (mean ± S.E.M)” value in test [2] (setting [5]) is 39.60 ± 1.39 %; in test [2] (setting [6]), 53.26 ± 1.62 %; in test [2] (setting [7]), 66.42 ± 0.90 ^ns %; in test [2] (setting [8]) it was 77.81 ± 1.09 ^ns %; in test [2] (setting [9]), 87.02 ± 0.81 ^ns %. Moreover, in test [2] (isolated compounds, Table 5), the “ABTS IC50” value is 85 µg/mL. Further, the values for the inhibition at 125 µg/mL in test [3] and in test [4] (setting [10]) were 66.2 ± 2.14% and 58.3 ± 0.93%, respectively. For the same compound, the inhibition at 250 µg/mL was 80.12 ± 0.62% in test [3] and 71.2 ± 1.38% in test [4] (setting [11]). Besides, the results for the inhibition at 500 µg/mL in test [3] and in test [4] (setting [12]) were 87.4 ± 1.51% and 80.35 ± 0.3%, respectively. For the same compound, the values for the inhibition at 1000 µg/mL in test [3] and in test [4] (setting [10]) were 94.35 ± 0.72% and 92 ± 1.89%, respectively. The results for the IC50 in test [3] and in test [4] (setting [13]) were 222 µM and 555 µM, respectively.
For `COc1ccc2c3c1O[C@H]1C[C@@H](O)C=C[C@@]31CCN(C)C2` [Galanthamine, reference compound], in test [4] (setting [10]), the inhibition at 125 µg/mL is 62.43 ± 0.39%. The inhibition at 250 µg/mL in test [4] (setting [11]) came to 71.8 ± 0.48%; in test [4] (250 μg/ml, extracts, Table 3, read-out: Percent BChE (mean ± SEM) inhibition), 76.72 ± 0.72%. Besides, the inhibition at 500 µg/mL in test [4] (setting [12]) came out at 86.51 ± 0.77%; in test [4] (500 μg/ml, extracts, Table 3, read-out: Percent BChE (mean ± SEM) inhibition), 84.7 ± 1.2%. Further, the inhibition at 1000 µg/mL in test [4] (setting [10]) was found to be 92.26 ± 0.92%.
Regarding `O=c1c(O)c(-c2ccc(O)cc2O)oc2cc(O)cc(O)c12` [Morin, 2-(2,4-Dihydroxyphenyl)-3,5,7-trihydroxychromen-4-one], the “DPPH percent inhibition (mean ± S.E.M)” value in test [1] (setting [5]) was 40.85 ± 0.94 %; in test [1] (setting [6]), 48.72 ± 1.11 ^ns %; in test [1] (setting [7]), 60.25 ± 2.28 %; in test [1] (setting [8]), 72.72 ± 1.56 %; in test [1] (setting [9]) it was 83.93 ± 0.72 %. For the same compound, the “DPPH IC50” value in test [1] (isolated compounds, Table 5) turned out to be 105 µg/mL. The “ABTS percent inhibition (mean ± S.E.M)” value in test [2] (setting [5]) came to 30.50 ± 1.43 %; in test [2] (setting [6]), 44.15 ± 0.56 %; in test [2] (setting [7]), 58.04 ± 2.44 %; in test [2] (setting [8]) it was 70.67 ± 1.02 %; in test [2] (setting [9]), 80.86 ± 1.09 %. Besides, the “ABTS IC50” value in test [2] (isolated compounds, Table 5) worked out at 145 µg/mL. In addition, the figures for the inhibition at 125 µg/mL in test [3] and in test [4] (setting [10]) were 56.3 ± 1.45% and 51.1 ± 0.56%, respectively. The inhibition at 250 µg/mL in test [3] was found to be 68.8 ± 0.8%; in test [4] (setting [11]), 60.51 ± 0.5%. The inhibition at 500 µg/mL in test [3] is 77.2 ± 0.91%; in test [4] (setting [12]), 68.4 ± 2.22%. In addition, the inhibition at 1000 µg/mL in test [3] came out at 85.5 ± 3.19%; in test [4] (setting [10]), 80.46 ± 0.76%. Also, the IC50 in test [3] is 212 µM; in test [4] (setting [13]) it was 384 µM.
